From ChEMBL document CHEMBL5143519, “Exploring disordered loops in DprE1 provides a functional site to combat drug-resistance in Mycobacterium strains” (Eur J Med Chem, 2022)
In brackets after ≈: the same amount, converted by molar mass. Activity calls are given as the source filed them. No cut-off for these calls is given here.

Legend:
[1] = test system: Mycobacterium tuberculosis variant bovis; assay: Antimycobacterial activity against Mycobacterium bovis BCG assessed as inhibition of bacterial growth incubated for 7 days by microplate alamar blue assay; format: functional; settings: 168 h, time 7 day
[2] = test system: Mycobacterium tuberculosis variant bovis; assay: Antimycobacterial activity against Mycobacterium bovis BCG overexpressing DprE1 assessed as inhibition of bacterial growth incubated for 7 days by microplate alamar blue assay; format: functional; settings: 168 h, time 7 day
[3] = test system: Mycobacterium tuberculosis variant bovis; assay: Antimycobacterial activity against Mycobacterium bovis BCG assessed as reduction in bacterial colony forming units at 20 times MIC concentration measured after 21 days by time kill assay; format: functional; settings: time 21 day
[4] = test system: Mycobacterium tuberculosis variant bovis; assay: Antimycobacterial activity against Mycobacterium bovis BCG assessed as reduction in bacterial colony forming units at 20 times MIC concentration measured after 7 days by time kill assay; format: functional, organism-based; settings: time 7.0 day
[5] = test system: Mycobacterium tuberculosis variant bovis; assay: Antimycobacterial activity against Mycobacterium bovis BCG overexpressing DprE1 assessed as reduction in bacterial colony forming units at 20 times MIC concentration measured after 21 days by time kill assay; format: functional, organism-based; settings: time 21.0 day

CCOC(=O)NC(=O)c1ccsc1NC(=O)c1nc2ccccc2s1
MIC [1]: 13.3 µM (≈ 4.99 µg/mL)
MIC [2]: 66.5 µM (≈ 25 µg/mL)
Activity [3]: 3 log10CFU/ml

O=C(NC(=O)c1ccsc1NC(=O)c1nc2ccccc2s1)OCC1CC1
MIC [1]: 3.11 µM (≈ 1.25 µg/mL)
MIC [2]: 12.4 µM (≈ 4.99 µg/mL)
Activity [3]: 3 log10CFU/ml
Activity [4]: Active
Activity [5]: Active

CO[C@H]1/C=C/O[C@@]2(C)Oc3c(C)c(O)c4c(O)c(c(/C=N/N5CCN(C)CC5)c(O)c4c3C2=O)NC(=O)/C(C)=C\C=C\[C@H](C)[C@H](O)[C@@H](C)[C@@H](O)[C@@H](C)[C@H](OC(C)=O)[C@@H]1C [RIFAMPIN]
MIC [1]: 0.35 µM (≈ 0.288 µg/mL)
MIC [2]: 0.35 µM (≈ 0.288 µg/mL)
Activity [3]: 3 log10CFU/ml

O=C(NC(=O)c1ccsc1NC(=O)c1nc2ccccc2s1)OCC1CCC1
MIC [1]: 12 µM (≈ 4.99 µg/mL)
MIC [2]: 30 µM (≈ 12.5 µg/mL)
